Assay results reported in patent US20100215635A1, “SMALL MOLECULES TO INDUCE WEIGHT LOSS OR TO REDUCE WEIGHT GAIN” (priority 2009, published 2010).

Columns and labels:
Type in all cases: in vivo, mouse
ob/ob mice [1] = assay: Effect on body weight of ob/ob obese mice; settings: for Body weight gained: 4.5 mg/kg s.c. daily for 14 days; for Body weight: 4.5 mg/kg s.c. once daily for 14 days
Source text: Leptin-deficient ob/ob obese diabetic inbred, adult female mice, weighing 32-36 g at arrival, specified pathogen free (SPF) hygienic category from Charles River VRF1, were used for these experiments. The ob/ob obese mouse is an extensively used animal model for the study of non-insulin-dependent-diabetes mellitus (NIDDM). The mutation was propagated in the C57BL/6J (BL/6) inbred strain. Homozygous obese (ob/ob) animals developed hyperglycemia, hyperinsulinemia and obesity. In these animals gluconeogenesis is enhanced despite their hyperinsulinemic state. The animals were kept in macrolon cages at 22-24° C. and 50-60% humidity, with lighting regimen of 12/12 h light dark. The animals had free access tap water and were fed with a sterilized standard diet (Charles River VRF1, autoclavable). The animals were cared for according to the “Guiding Principles for the Care and Use for Animals” based upon the Helsinki declaration. The ob/ob mice gained weight rapidly and develop a marked obesity by 5-6 weeks of age. […] When arrived they were 5 weeks old (when experiment was performed with CC1) or 4.5 weeks old (when experiment was performed with CC3 and CC19); the treatments started 8 days later in the experiment performed with CC1 and 10 days later in the experiment performed with CC3 and CC19. Experimental groups selected from C57/BL or ob/ob mice were injected subcutaneously at regular intervals once daily for 14 days with CCompound1, CCompound3, or CCompound19 at the dose of 4.5-mg per kg. Other groups selected from C57/BL or ob/ob mice remained untreated during the entire length of the experiment. Body weight was measured every day or every second day for 14 days and then on days 21, 40, and 48. All untreated and treated groups included 5 animals except the CCompound1-treated group of ob/ob mice that included 9 animals. The data are expressed as the average ±standard error of mean. On day 1, body weight was measured first followed by the treatment in the CCompound1-treated group. The treatments were repeated for 14 days with no additional treatment performed during the rest of the observation period. […] In contrast, CCompound1 treated mice gained 2.6-g body weight between day 1 and 14, and also only 2.6-g between day 14 and 48. On day 14 and the following days the differences in body weight were statistically highly significant (P<0.001). It is particularly important that between day 14 and 48, weight gain in the treated group was minimal compared to the control group despite discontinuation of the treatment. […] This feature allows intermittent use of CCompound1 and analogs for weight control. On day 1, first body weight was measured, followed by the treatments with CCompound3 (5 mice) or CCompound19 (5 mice) as indicated in TABLE 4. The treatments were repeated for 14 days with no additional treatment performed during the rest of the observation period. One group of animals (5 mice) served as untreated controls. […] Mice treated with CCompound3 gained 3.3-g body weight between day 1 and 15, and 6.8-g between day 15 and 48. Mice treated with CCompound19 gained 2.6-g body weight between day 1 and 15, and 4.2-g between day 15 and 48. […] Again, both CCompound3 and particularly CCompound19 were effective reducing weight between day 15 and 48 despite discontinuation of the treatment after the last treatment on day 15.

C57/BL mice = assay: Effect on body weight of C57/BL (non-obese control) mice; settings: for Body weight gained: 4.5 mg/kg s.c. daily for 14 days; for Body weight: 4.5 mg/kg s.c. once daily for 14 days
Description: C57BL6 male mice (10-11 weeks old) were used as non-obese controls of ob/ob mice. These animals were kept under specified pathogen free (SPF) condition and they were fed a standard sterilized diet (Charles River) ad libitum. Experimental groups selected from C57/BL or ob/ob mice were injected subcutaneously at regular intervals once daily for 14 days with CCompound1, CCompound3, or CCompound19 at the dose of 4.5-mg per kg. Other groups selected from C57/BL or ob/ob mice remained untreated during the entire length of the experiment. Body weight was measured every day or every second day for 14 days and then on days 21, 40, and 48. All untreated and treated groups included 5 animals except the CCompound1-treated group of ob/ob mice that included 9 animals. The data are expressed as the average ±standard error of mean. This mouse strain served as the control to the ob/ob mice. On day 1, body weight was measured first followed by the treatment in the CCompound1-treated group. The treatments were repeated for 14 days. […] CCompound1 treated mice also gained 2-g body weight between day 1 and 14, and 4.2-g between day 14 and 48. This small difference between the two groups was not statistically significant. In a follow up experiment using the same treatment regimen, C57/BL mice treated with 6-mg per kg dose of CCompound1 gained 5.6-g weight gain over a 40 days period compared to 5.8-g weight gain in the control group over the same time period. Again, this small difference was not statistically significant.

ob/ob mice [2] = assay: Effect on body weight of ob/ob obese mice; settings: ob/ob mice (Example 3, Table 4), 4.5 mg/kg s.c. once daily for 14 days; day 20
[3] = ob/ob mice (Example 3), then no treatment, between day 15 and 48 (untreated 11.9 g)
[4] = ob/ob mice (Example 3), between day 1 and 15 (untreated 4.8 g)
[5] = ob/ob mice (Example 3, Table 4), day 1 (before first treatment)
[6] = ob/ob mice (Example 3, Table 4), day 5
[7] = ob/ob mice (Example 3, Table 4), day 10
[8] = ob/ob mice (Example 3, Table 4), day 15
[9] = ob/ob mice (Example 3, Table 4), day 40, P < 0.001 vs no treatment
[10] = ob/ob mice (Example 3, Table 4), day 48, P < 0.001 vs no treatment

**Q.** For `Cc1c(OCC(O)C[N+](C)(C)C)cc2c(=O)c3ccccc3sc2c1C.[Cl-]` (centres unmarked) [CCcompound1, [3-(3,4-Dimethyl-9-oxo-9H-thioxanthen-2-yloxy)-2-hydroxypropyl]trimethyl-ammonium chloride], which Body weight gained (ob/ob mice [1]; ob/ob mice, then no treatment, between day 14 and 48 (untreated 11.6 g)) is on record?
**A.** 2.6 g

**Q.** And the Body weight gained (ob/ob mice [1]; ob/ob mice, between day 1 and 14 (untreated 4.4 g))?
**A.** 2.6 g

**Q.** What about the Body weight (ob/ob mice [1]; ob/ob mice, day 1 (before first treatment)) of the same molecule?
**A.** 40.4 ± 0.7 g

**Q.** And the Body weight (ob/ob mice [1]; ob/ob mice, day 2)?
**A.** 40.4 ± 0.6 g

**Q.** What about the Body weight (ob/ob mice [1]; ob/ob mice, day 3) of the same molecule?
**A.** 40.6 ± 0.6 g

**Q.** What about the Body weight (ob/ob mice [1]; ob/ob mice, day 4) of the same molecule?
**A.** 40.8 ± 0.6 g

**Q.** What about the Body weight (ob/ob mice [1]; ob/ob mice, day 5) of the same molecule?
**A.** 40.7 ± 0.6 g

**Q.** And the Body weight (ob/ob mice [1]; ob/ob mice, day 6)?
**A.** 41.0 ± 0.6 g

**Q.** What about the Body weight (ob/ob mice [1]; ob/ob mice, day 7) of the same molecule?
**A.** 41.5 ± 0.6 g

**Q.** And the Body weight (ob/ob mice [1]; ob/ob mice, day 8)?
**A.** 41.9 ± 0.7 g

**Q.** What about the Body weight (ob/ob mice [1]; ob/ob mice, day 9) of the same molecule?
**A.** 42.1 ± 0.7 g

**Q.** What about the Body weight (ob/ob mice [1]; ob/ob mice, day 10) of the same molecule?
**A.** 42.4 ± 0.7 g

**Q.** What about the Body weight (ob/ob mice [1]; ob/ob mice, day 11) of the same molecule?
**A.** 42.6 ± 0.6 g

**Q.** And the Body weight (ob/ob mice [1]; ob/ob mice, day 12)?
**A.** 42.7 ± 0.6 g

**Q.** And the Body weight (ob/ob mice [1]; ob/ob mice, day 13)?
**A.** 42.9 ± 0.6 g

**Q.** What about the Body weight (ob/ob mice [1]; ob/ob mice, day 14, P < 0.001 vs no treatment) of the same molecule?
**A.** 43.0 ± 0.7 g

**Q.** And the Body weight (ob/ob mice [1]; ob/ob mice, day 19, P < 0.001 vs no treatment)?
**A.** 44.3 ± 0.9 g

**Q.** What about the Body weight (ob/ob mice [1]; ob/ob mice, day 21, P < 0.001 vs no treatment) of the same molecule?
**A.** 44.5 ± 0.8 g

**Q.** And the Body weight (ob/ob mice [1]; ob/ob mice, day 45, P < 0.001 vs no treatment)?
**A.** 45.6 ± 1.1 g

**Q.** And the Body weight (ob/ob mice [1]; ob/ob mice, day 48, P < 0.001 vs no treatment)?
**A.** 45.6 ± 1.1 g

**Q.** And the Body weight gained (C57/BL mice; between day 1 and 14 (untreated 2 g))?
**A.** 2 g

**Q.** And the Body weight gained (C57/BL mice; between day 14 and 48 (untreated 5.2 g; difference not statistically significant))?
**A.** 4.2 g

**Q.** What about the Body weight (C57/BL mice; day 1 (before first treatment)) of the same molecule?
**A.** 28.0 ± 0.7 g

**Q.** And the Body weight (C57/BL mice; day 2)?
**A.** 27.7 ± 0.6 g

**Q.** And the Body weight (C57/BL mice; day 4)?
**A.** 28.2 ± 0.7 g

**Q.** And the Body weight (C57/BL mice; day 6)?
**A.** 28.7 ± 0.5 g

**Q.** And the Body weight (C57/BL mice; day 8)?
**A.** 28.8 ± 0.4 g

**Q.** What about the Body weight (C57/BL mice; day 10) of the same molecule?
**A.** 29.6 ± 0.7 g

**Q.** And the Body weight (C57/BL mice; day 12)?
**A.** 30.3 ± 1.4 g

**Q.** What about the Body weight (C57/BL mice; day 14) of the same molecule?
**A.** 30.0 ± 0.9 g

**Q.** And the Body weight (C57/BL mice; day 21)?
**A.** 30.7 ± 1.1 g

**Q.** And the Body weight (C57/BL mice; day 40)?
**A.** 33.9 ± 0.9 g

**Q.** And the Body weight (C57/BL mice; day 48)?
**A.** 34.2 ± 0.8 g

**Q.** And the “Effect on body weight in normal mice” value (C57/BL mice; dose range 4.5-6 mg per kg)?
**A.** no effects on the body weight

**Q.** What about the Weight gain (C57/BL mice; follow up experiment, 6 mg per kg, same regimen, over a 40 days period (control 5.8 g; not statistically significant)) of the same molecule?
**A.** 5.6 g

**Q.** For `CC[N+](C)(CC)CCOCc1ccc2sc3ccccc3c(=O)c2c1` [CCcompound3], which Body weight (ob/ob mice [2]) is on record?
**A.** 42.2 ± 0.5 g

**Q.** And the Body weight gained (ob/ob mice [1]; [3])?
**A.** 6.8 g

**Q.** And the Body weight gained (ob/ob mice [1]; [4])?
**A.** 3.3 g

**Q.** What about the Body weight (ob/ob mice [1]; [5]) of the same molecule?
**A.** 37.0 ± 0.6 g

**Q.** And the Body weight (ob/ob mice [1]; [6])?
**A.** 37.5 ± 1.2 g

**Q.** And the Body weight (ob/ob mice [1]; [7])?
**A.** 38.5 ± 0.9 g

**Q.** And the Body weight (ob/ob mice [1]; [8])?
**A.** 40.3 ± 1.1 g

**Q.** And the Body weight (ob/ob mice [1]; [9])?
**A.** 45.9 ± 0.8 g

**Q.** What about the Body weight (ob/ob mice [1]; [10]) of the same molecule?
**A.** 47.1 ± 1.0 g

**Q.** What does the source list for `C[N+](C)(C)CCC=C1c2ccccc2Sc2ccccc21.[I-]` [CCcompound19, N,N,N-trimethyl-3-(9H-thioxanthen-9-ylidene)-propane-1-aminium iodide]?
**A.** Body weight (ob/ob mice [2]): 42.1 ± 0.9 g; Body weight gained (ob/ob mice [1]; [3]): 4.2 g; Body weight gained (ob/ob mice [1]; [4]): 2.6 g; Body weight (ob/ob mice [1]; [5]): 38.1 ± 0.6 g; Body weight (ob/ob mice [1]; [6]): 38.4 ± 0.7 g; Body weight (ob/ob mice [1]; [7]): 39.7 ± 0.4 g; Body weight (ob/ob mice [1]; [8]): 40.7 ± 0.5 g; Body weight (ob/ob mice [1]; [9]): 43.8 ± 1.3 g; Body weight (ob/ob mice [1]; [10]): 44.9 ± 0.8 g
